Data as given in the supplement of paper PMC10307832.

What was measured:
Experiment in all cases: relative viability (nuclei count vs DMSO), 5 days (fraction); higher = more cells survive
GSK126 + Pictilisib = compound: CC[C@H](C)N1C=C(C2=C(C=C(C=C21)C3=CN=C(C=C3)N4CCNCC4)C(=O)NCC5=C(C=C(NC5=O)C)C)C [GSK126] + CS(=O)(=O)N1CCN(Cc2cc3nc(-c4cccc5[nH]ncc45)nc(N4CCOCC4)c3s2)CC1 [Pictilisib] (partner 1 µM)
Outline: (§1)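 Lung cancer cell lines in 1536-well plates were dosed by pin tool the day after seeding, either with one drug alone or with a fixed anchor-drug dose plus five library-drug doses (not always all listed) in √10 steps. After 5 days, cells were fixed and their nuclei stained in one step (final 0.05% Triton X-100, 1% formaldehyde, 1 ug/ml Hoechst), then counted on 4× images. Relative viability is the nuclei count in treated wells divided by that in vehicle wells. Values are medians of duplicate plates.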

Carboplatin + Navitoclax = compound: C1CC(C1)(C(=O)O)C(=O)O.[NH2-].[NH2-].[Pt+2] [Carboplatin] + CC1(C)CCC(c2ccc(Cl)cc2)=C(CN2CCN(c3ccc(C(=O)NS(=O)(=O)c4ccc(N[C@H](CCN5CCOCC5)CSc5ccccc5)c(S(=O)(=O)C(F)(F)F)c4)cc3)CC2)C1 [Navitoclax] (partner 0.5 µM)
Outline: as §1

GSK126 + Luminespib = compound: CC[C@H](C)N1C=C(C2=C(C=C(C=C21)C3=CN=C(C=C3)N4CCNCC4)C(=O)NCC5=C(C=C(NC5=O)C)C)C [GSK126] + CCNC(=O)c1noc(-c2cc(C(C)C)c(O)cc2O)c1-c1ccc(CN2CCOCC2)cc1 [Luminespib] (partner 0.01 µM)
Outline: as §1

Cell Line | relative viability (GSK126 + Pictilisib; first compound 0.08 µM) | relative viability (GSK126 + Pictilisib; first compound 0.253 µM) | relative viability (GSK126 + Pictilisib; first compound 0.8 µM) | relative viability (GSK126 + Pictilisib; first compound 2.53 µM) | relative viability (GSK126 + Pictilisib; first compound 8 µM) | relative viability (Carboplatin + Navitoclax; first compound 0.08 µM) | relative viability (Carboplatin + Navitoclax; first compound 0.253 µM) | relative viability (Carboplatin + Navitoclax; first compound 0.8 µM) | relative viability (Carboplatin + Navitoclax; first compound 2.53 µM) | relative viability (Carboplatin + Navitoclax; first compound 8 µM) | relative viability (GSK126 + Luminespib; first compound 0.08 µM) | relative viability (GSK126 + Luminespib; first compound 0.253 µM) | relative viability (GSK126 + Luminespib; first compound 0.8 µM) | relative viability (GSK126 + Luminespib; first compound 2.53 µM) | relative viability (GSK126 + Luminespib; first compound 8 µM)
NCI-H441 | 0.495 | 0.638 | 0.432 | 0.539 | 0.428 | 0.657 | 1.19 | 0.447 | 0.545 | 0.526 | 0.361 | 0.283 | 0.28 | 0.35 | 0.349
NCI-H460 | 0.371 | 0.391 | 0.335 | 0.361 | 0.338 | 1.13 | 1.11 | 1.03 | 0.986 | 0.358 | 0.0467 | 0.0392 | 0.0346 | 0.0287 | 0.0416
NCI-H520 | 0.265 | 0.261 | 0.271 | 0.256 | 0.281 | 1.16 | 1.09 | 0.961 | 1.02 | 0.857 | 0.22 | 0.221 | 0.236 | 0.231 | 0.237
NCI-H596 | 0.386 | 0.404 | 0.378 | 0.382 | 0.37 | 1 | 0.952 | 0.803 | 0.74 | 0.695 | 1.11 | 0.319 | 0.277 | 0.263 | 0.219
NCI-H647 | 0.441 | 0.351 | 0.404 | 0.528 | 0.337 | 1.18 | 1.17 | 1.08 | 1.09 | 0.784 | 0.358 | 0.193 | 0.144 | 0.202 | 0.124
NCI-H727 | 0.269 | 0.367 | 0.317 | 0.367 | 0.43 | 0.487 | 0.393 | 0.426 | 0.441 | 0.324 | 0.482 | 0.375 | 0.421 | 0.345 | 0.336
NCI-H838 | 0.507 | 0.35 | 0.403 | 0.426 | 0.369 | 1.22 | 1.08 | 1.16 | 1.11 | 1.06 | 0.39 | 0.319 | 0.357 | 0.302 | 0.34
NCI-H1355 | 0.476 | 0.531 | 0.447 | 0.499 | 0.447 | 1.02 | 1.01 | 0.853 | 0.912 | 0.921 | 0.783 | 0.753 | 0.777 | 0.881 | 0.806
NCI-H1395 | 0.653 | 0.653 | 0.798 | 0.699 | 0.726 | 1.16 | 1.2 | 0.799 | 0.845 | 0.591 | 0.64 | 0.62 | 0.606 | 0.689 | 0.545
NCI-H1437 | 0.44 | 0.504 | 0.406 | 0.455 | 0.405 | 1.07 | 1.14 | 1.09 | 1.05 | 0.97 | 1.09 | 1.07 | 1.04 | 1.11 | 1.06
NCI-H1650 | 0.568 | 0.596 | 0.566 | 0.794 | 0.556 | 1.33 | 1.11 | 1.13 | 1.07 | 0.726 | 0.217 | 0.193 | 0.188 | 0.166 | 0.205
NCI-H1651 | 0.55 | 0.548 | 0.601 | 0.608 | 0.584 | 0.973 | 1.13 | 0.982 | 0.904 | 0.538 | 0.966 | 0.948 | 0.766 | 0.732 | 0.817
NCI-H1666 | 0.558 | 0.483 | 0.379 | 0.384 | 0.528 | 1.04 | 1.12 | 0.745 | 0.853 | 0.641 | 1.04 | 0.926 | 0.858 | 0.855 | 0.907
NCI-H1734 | 0.49 | 0.403 | 0.408 | 0.43 | 0.45 | 0.873 | 0.905 | 0.873 | 0.729 | 0.676 | 0.179 | 0.231 | 0.117 | 0.176 | 0.213
NCI-H1755 | 0.512 | 0.451 | 0.459 | 0.46 | 0.384 | 1.02 | 1.01 | 1.04 | 1.02 | 0.891 | 0.435 | 0.519 | 0.58 | 0.381 | 0.501
NCI-H1792 | 0.289 | 0.272 | 0.35 | 0.3 | 0.246 | 0.887 | 0.682 | 0.667 | 0.618 | 0.567 | 0.386 | 0.401 | 0.443 | 0.483 | 0.355
NCI-H1793 | 0.224 | 0.37 | 0.36 | 0.502 | 0.343 | 0.496 | 0.585 | 0.388 | 0.453 | 0.435 | 0.152 | 0.177 | 0.164 | 0.258 | 0.152
NCI-H1915 | 0.937 | 0.874 | 1.04 | 0.941 | 0.927 | 0.795 | 0.751 | 0.745 | 0.752 | 0.579 | 0.986 | 0.771 | 0.788 | 0.823 | 0.841
NCI-H1944 | 0.356 | 0.349 | 0.367 | 0.36 | 0.391 | 1.1 | 1.1 | 0.991 | 1.02 | 0.656 | 0.873 | 0.72 | 0.621 | 0.678 | 0.923

Cell Line | relative viability (GSK126 + Pictilisib; first compound 0.08 µM) | relative viability (GSK126 + Pictilisib; first compound 0.253 µM) | relative viability (GSK126 + Pictilisib; first compound 0.8 µM) | relative viability (GSK126 + Pictilisib; first compound 2.53 µM) | relative viability (GSK126 + Pictilisib; first compound 8 µM) | relative viability (Carboplatin + Navitoclax; first compound 0.08 µM) | relative viability (Carboplatin + Navitoclax; first compound 0.253 µM) | relative viability (Carboplatin + Navitoclax; first compound 0.8 µM) | relative viability (Carboplatin + Navitoclax; first compound 2.53 µM) | relative viability (Carboplatin + Navitoclax; first compound 8 µM) | relative viability (GSK126 + Luminespib; first compound 0.08 µM) | relative viability (GSK126 + Luminespib; first compound 0.253 µM) | relative viability (GSK126 + Luminespib; first compound 0.8 µM) | relative viability (GSK126 + Luminespib; first compound 2.53 µM) | relative viability (GSK126 + Luminespib; first compound 8 µM)
NCI-H1975 | 0.328 | 0.301 | 0.321 | 0.291 | 0.274 | 1.19 | 1.26 | 1.01 | 1.09 | 1.18 | 0.292 | 0.257 | 0.185 | 0.198 | 0.12
NCI-H1993 | 0.841 | 0.795 | 0.828 | 0.902 | 0.782 | 0.981 | 0.867 | 0.855 | 0.755 | 0.861 | 0.829 | 0.931 | 0.363 | 0.877 | 0.832
NCI-H2009 | 1.14 | 0.69 | 0.827 | 0.908 | 0.908 | 1.12 | 1.08 | 1.09 | 1.04 | 0.733 | 1.1 | 1.01 | 0.968 | 1.06 | 1.09
NCI-H2023 | 0.26 | 0.253 | 0.247 | 0.306 | 0.256 | 1.02 | 0.96 | 0.883 | 0.76 | 0.312 | 0.728 | 0.759 | 0.698 | 0.656 | 0.66
NCI-H2085 | 0.484 | 0.358 | 0.369 | 0.485 | 0.49 | 1.25 | 1.09 | 1.09 | 1.05 | 1.09 | 0.52 | 0.514 | 0.414 | 0.406 | 0.623
NCI-H2087 | 1.08 | 0.745 | 0.815 | 0.894 | 0.844 | 0.944 | 1.03 | 0.944 | 1.01 | 0.895 | 0.144 | 0.134 | 0.142 | 0.165 | 0.185
NCI-H2126 | 0.497 | 0.531 | 0.523 | 0.496 | 0.502 | 0.894 | 0.871 | 0.853 | 0.865 | 0.784 | 1 | 0.924 | 0.873 | 0.972 | 0.734
NCI-H2170 | 0.333 | 0.281 | 0.35 | 0.322 | 0.346 | 0.679 | 0.594 | 0.633 | 0.588 | 0.508 | 0.655 | 0.924 | 0.595 | 0.546 | 0.722
NCI-H2228 | 0.357 | 0.519 | 0.494 | 0.497 | 0.42 | 1.2 | 0.818 | 0.855 | 0.744 | 0.472 | 0.173 | 0.12 | 0.116 | 0.118 | 0.205
NCI-H2347 | 0.602 | 0.661 | 0.567 | 0.511 | 0.616 | 0.897 | 0.929 | 0.771 | 0.721 | 0.673 | 0.757 | 0.701 | 0.308 | 0.392 | 0.267
NCI-H2405 | 0.427 | 0.385 | 0.437 | 0.452 | 0.397 | 0.869 | 0.862 | 0.639 | 0.629 | 0.62 | 0.946 | 0.74 | 0.711 | 0.695 | 0.604
NCI-H3122 | 0.61 | 0.597 | 0.595 | 0.684 | 0.703 | 1.03 | 0.988 | 1.01 | 1.02 | 0.97 | 0.0614 | 0.0957 | 0.0787 | 0.0846 | 0.103
PC-3 [JPC-3] | 0.808 | 0.795 | 0.814 | 0.781 | 0.762 | 0.85 | 0.78 | 0.83 | 0.717 | 0.725 | 0.75 | 0.728 | 0.745 | 0.708 | 0.734
PC-14 | 0.684 | 0.667 | 0.59 | 0.693 | 0.656 | 0.991 | 0.974 | 0.985 | 0.918 | 0.566 | 0.163 | 0.144 | 0.174 | 0.155 | 0.114
RERF-LC-KJ | 0.551 | 0.554 | 0.589 | 0.529 | 0.55 | 1.29 | 0.739 | 0.822 | 0.915 | 0.652 | 1.22 | 1.09 | 1.31 | 1.3 | 1.16
SK-LU-1 | 0.657 | 0.699 | 0.587 | 0.667 | 0.694 | 0.824 | 0.774 | 0.946 | 0.872 | 0.387 | 0.194 | 0.192 | 0.215 | 0.182 | 0.214
SK-MES-1 | 0.386 | 0.322 | 0.329 | 0.357 | 0.392 | 1.13 | 1.3 | 1.2 | 1.21 | 1.16 | 0.856 | 0.76 | 0.823 | 0.866 | 0.908
SW 1573 | 0.568 | 0.485 | 0.528 | 0.486 | 0.559 | 0.91 | 1.03 | 0.922 | 1.1 | 0.543 | 0.424 | 0.374 | 0.196 | 0.43 | 0.16
